Experimental data: US20190284286A1, “Modulation of Type I Interferons to Reactivate HIV-1 Reservoir and Enhance HIV-1 Treatment” (The University of North Carolina at Chapel Hill, priority 2016, published 2019)

Assays:
[1] = system: CD4 T cells; assay: Ex vivo culture of splenocytes from HIV-1 persistently infected humanized mice; format: cell-based; conditions: for number of live CD4 T cells (CD4 T cell depletion) / active caspase-3 / apoptosis of CD4 T cells: 10 days culture, Z-DEVD-FMK 10 μM; for number of live CD4 T cells (CD4 T cell depletion): Ac-YVAD-CMK 50 μM
Description: Mice were sacrificed at 10 wpi. […] At day 10, the cells were counted and used for analysis. (B) HIV-1 RNA levels in culture supernatant. (C-D) Representative dot plots (C) and summarized data (D) show percentages of CD4 T cells with active caspase-3. (E) Number of live CD4 T cells in each group. (F-I) Splenocytes from mock (n=2) or HIV-1 infected (n=4) humanized mice were cultured with IL-2 in vitro in the presence of DMSO or caspase-3 inhibitor Z-DEVD-FMK or caspase-1 inhibitor Ac-YVAD-CMK for 10 days. At day 10, the cells were counted and used for staining. (F-G) Representative dot plots (F) and summarized data (G) show percentages of active caspase-3^+ CD4 T cells. (H-I) Number of live CD4 T cells in each group. Data are one representative of 2 independent experiments with mean values±s.e.m.). *P<0.05, **P<0.01 by unpaired, two-tailed Student's t-test to compare differences between each two groups.
For surface staining, single cell suspensions prepared from peripheral blood, spleen, or mesenteric lymph nodes of humanized mice were stained with surface markers and analyzed on a CyAn ADP flow cytometer (Dako). For intracellular staining, cells were first stained with surface markers, and then fixed and permeabilized with cytofix/cytoperm buffer (BD Bioscience), followed by intracellular staining. PE-conjugated anti-human active caspase-3 (C92-605) was used to detect intracellular activation of caspase-3. Fluorescent labeled inhibitors of caspases-1 probe assay (FLICA 660 Caspase-1 Assay Kit, ImmunoChemistry Technologies) were performed to determine intracellular activation of caspases-1. Data were analyzed using Summit4.3 software (Dako).
Media were half-changed every 2-3 days. At day 10, the cells were counted and used for staining.

[2] = system: HIV-1; conditions: long-term IFN-α during and after ART; cited from earlier work
[3] = α-IFNAR1 10 μg/ml, IFN-α 200 u/ml

Compound	HIV-1 replication (HIV-1 RNA in culture supernatant) ([1]; 10 days culture with IL-2, α-IFNAR1 10 μg/ml, IFN-α 200 u/ml)	number of live CD4 T cells (CD4 T cell depletion) [1]	active caspase-3 / apoptosis of CD4 T cells [1, 3]	patients with suppression of HIV-1 rebound [2]
IFN-α	inhibited HIV-1 replication	accelerated CD4 T cell depletion	further increased the level of active caspase-3	~40%
CC(=O)N[C@@H](Cc1ccc(O)cc1)C(=O)N[C@H](C(=O)N[C@@H](C)C(=O)N[C@@H](CC(=O)O)C(=O)CCl)C(C)C [Ac-YVAD-CMK, reference compound]		did not prevent CD4 T cell depletion		
COC(=O)CC[C@H](NC(=O)[C@H](CC(=O)OC)NC(=O)OCc1ccccc1)C(=O)N[C@H](C(=O)N[C@@H](CC(=O)OC)C(=O)CF)C(C)C [Z-DEVD-FMK, reference compound]		rescued CD4 T cell number	reduced HIV-1 induced CD4 T cell apoptosis	
